Measurements as given in patent publication US6468509B2, “Sunscreen composition containing sol-gel microcapsules” (Sol-Gel Technologies Ltd., priority 1999, dated 2002).

Columns and labels:
supercoiled plasmid DNA = settings: positive controls at saturation concentrations; cited from earlier work
yeast strain, XD83 = experiment: Phototoxicity test based on survival of yeast under simulated sunlight; assay type: cell-based; settings: simulated sunlight 13 mW/cm^2
Description: The phototoxicity tests are based on the survival of a yeast strain, XD83. A single colony of yeast is inoculated into growth medium, and harvested during the exponential growth. The cells are suspended at a known concentration in a phosphate buffer, to afford a uniform population of cells. The cells are illuminated with simulated sunlight (13 mW/cm^2) in the absence or presence of test compounds with continous stirring. Samples are taken at increasing times (0, 10, 20, 30 minutes of illumination). The samples are analyzed semi-quantitatively, by applying two dilutions of the sample as small droplets (10 μl) to the surface of nutrient agar plates, and incubated at 37° C. for 48 hours. Patches of growth are found around the droplet. It can be easily seen when growth has been decreased. Sunscreen samples are introduces as 1000 μM concentration of the major UVB sunscreen active ingredient.

Compound: CCCCC(CC)COC(=O)c1ccc(N(C)C)cc1 (stereo not drawn) [Padimate-O, 2-Ethylhexyl N,N-Dimethyl-p-aminobenzoate]
- strand breaks on DNA when illuminated in vitro (supercoiled plasmid DNA): inflict strand breaks on DNA
- phototoxic effect on the growth of the yeast cell (yeast strain, XD83; positive controls): strong phototoxic effect
- Phototoxicity (yeast strain, XD83; yeast XD83, 0-30 minutes illumination, 1000 μM of major UVB sunscreen active ingredient): Clearly toxic
